Results published in patent US4123552A, “Compositions for preserving crops and animal feedstuffs” (Chevron Research Company, priority 1975, dated 1978).
Converted amounts (≈) assume the structure as drawn.

Legend:
[1] = test system: fungal growth; assay: Visual fungal growth rating on treated crops in ventilated cans; parameters: key: 1 = no growth, 10 = heavy uniform growth; conditions: 1-10 basis
Method: Methylene bispropionate was applied to a variety of crops at various dosages by spraying or in a mixer. Two ventilated cans were filled with each treated crop. The cans were then maintained at 70° F. ±5° F. Each can was periodically visually observed for fungal growth and the observations were translated into a growth rating on a 1-10 basis; 1 indicating no growth and 10 indicating heavy uniform growth. For comparison, two samples of each untreated crop were also tested. The crops employed, the percent weight methylene bispropionate (MBP) based on weight crop, and the fungal rating 2, 7-8 and 28-29 days after treatment are tabulated in Table III.

[2] = test system: Aspergillus niger; assay: Antimicrobial activity of MBP on nutrient agar, Aspergillus niger; type: cell-based; conditions: read-out: Germistatic Concentration of MBP
Method: (§1) Microbiological tests were conducted to determine the antimicrobial activity of methylene bispropionate (MBP). The minimum concentration of MBP, capable of inhibiting the growth of five species of bacteria, two species of mold and one species of yeast was determined. Petri plates containing nutrient agar and various concentrations of MBP were inoculated with each of the test species. The identification of these organisms and the effective concentration of MBP inhibiting growth are shown below: […]

[3] = test system: Staphylococcus aureus; assay: Antimicrobial activity of MBP on nutrient agar, Staphylococcus aureus; type: cell-based; conditions: read-out: Germistatic Concentration of MBP
Method: as §1

[4] = test system: All Species; assay: Control of seed- and soil-borne pathogens during storage of corn seeds (Table IV), all species; type: cell-based, Rhizopus, Penicillium, Fusarium; conditions: relative to untreated check
Method: A variety of bis-esters was tested for the control of seed- and soil-borne pathogens during storage of corn seeds (Zea mays) by the following procedure.
(§2) A small amount of acetone was added to the bis-ester to make specific volume, plus a small portion of emulsifier making it into a slurry. This preparation was diluted with water to the desired concentration. Solution was then evenly distributed on the wall of a glass jar. High moisture feedcorn with natural infection was stored frozen after harvest until used for this test. The corn seeds were rolled in the jar until they were coated and the solution was completely absorbed on them.
(§3) Following the treatment, the corn seeds were plated on Potato Dextrose Agar plates. For comparison, untreated corn seeds were also plated. Propionic acid was also tested for comparison.
The percentage control of all species was based on the total sum average of mycelial growth in millimeters of all species in the treated seeds relative to the untreated check. The fast growing Rhizopus was evaluated 7 days after treatment, the other fungi after 14 days.

[5] = Acute oral toxicity in white rats; conditions: rat, in vivo
From the text: Methylene bispropionate was subjected to acute oral toxicity studies using white rats.

[6] = test system: Bacillus subtilis; assay: Antimicrobial activity of MBP on nutrient agar, Bacillus subtilis; type: cell-based; conditions: read-out: Germistatic Concentration of MBP
Method: as §1

[7] = test system: Trichophyton interdigitale; assay: Antimicrobial activity of MBP on nutrient agar, Trichophyton interdigitale; type: cell-based; conditions: read-out: Germistatic Concentration of MBP
Method: as §1

[8] = test system: Aspergillus niger; assay: Concentration for 90% control of pathogen on corn seeds (Table V), Aspergillus niger; type: cell-based; conditions: 14 days after treatment; for Conc. for 90% Control, Aspergillus niger: corn seeds
Method: as §2, §3
(§4) A variety of bis-esters was tested for the control of seed- and soil-borne pathogens during the storage of corn seeds (Zea mays) by the procedure of Example 11. For comparison, propionic acid was also tested.
(§5) Control of each pathogen was determined by mycelial growth in millimeters in the treated seeds relative to untreated seeds. Mycelial growth of Rhizopus species and Fusarium species was evaluated 5 days after treatment. Mycelial growth in Aspergillus niger was evaluated 14 days after treatment.
(§6) The bis-ester tested and the concentration of active ingredient in ounces per 100 lbs. of corn seeds for 90 percent control of each pathogen species are tabulated in Table V.

[9] = test system: Streptococcus pyogenes; assay: Antimicrobial activity of MBP on nutrient agar, Streptococcus pyogenes; type: cell-based; conditions: read-out: Germistatic Concentration of MBP
Method: as §1

[10] = test system: Rhizopus sp.; assay: Concentration for 90% control of pathogen on corn seeds (Table V), Rhizopus sp.; type: cell-based; conditions: 5 days after treatment
Method: as §2, §3, §4, §5, §6

[11] = test system: high moisture corn; assay: Preservation of high moisture corn in ventilated cans (time until temperature exceeds room temperature); conditions: for Weeks Effective: corn 25 percent moisture, 70-72 F; for effectiveness in preservation of high moisture corn (in words): from Table II
Method: High moisture corn (25 percent moisture) was treated with various methylene and polyoxymethylene esters of propionic or acetic acid of various dosages. The esters were applied to the corn in a mixer for one minute at 32 RPM. Three replicate two gallon ventilated cans were filled with the treated corn. The cans were then held at a temperature of 70°-72° F. Temperature readings were taken semi-weekly by means of thermocouples in the center of each can. When the temperature exceeded constant room temperature for at least an 8-hour period the treatment was considered broken.

[12] = test system: Candida albicans; assay: Antimicrobial activity of MBP on nutrient agar, Candida albicans; type: cell-based; conditions: read-out: Germistatic Concentration of MBP
Method: as §1

[13] = test system: Escherichia coli; assay: Antimicrobial activity of MBP on nutrient agar, Escherichia coli; type: cell-based; conditions: read-out: Germistatic Concentration of MBP
Method: as §1

[14] = test system: Pseudomonas aeruginosa; assay: Antimicrobial activity of MBP on nutrient agar, Pseudomonas aeruginosa; type: cell-based; conditions: read-out: Germistatic Concentration of MBP
Method: as §1

[15] = test system: Fusarium sp.; assay: Concentration for 90% control of pathogen on corn seeds (Table V), Fusarium sp.; type: cell-based; conditions: 5 days after treatment
Method: as §2, §3, §4, §5, §6

[16] = Solubility of insecticides in methylene bispropionate; type: physicochemical; conditions: solvent methylene bispropionate
Method: Methylene bispropionate was tested as a solvent for various insecticides. […] O,S-dimethylN-acetyl phosphoramidothioate was soluble in methylene bispropionate to the extent of 5 percent by weight. Chlordane was soluble in methylene bispropionate to the extent of at least 75 percent by weight.

## CCC(=O)OCOC(=O)CC [Methylene Bispropionate]
[1]; Hay (4" seedlings), […] Wt MBP, 7-8 days
  Fungal Rating: 0
[1]; Hay (4" seedlings), […] Wt MBP, 28-29 days
  Fungal Rating: 4
[1]; Hay (4" seedlings), […] Wt MBP, 2 days
  Fungal Rating: 0
[1]; Sorghum (33% H2 O), 0.51 % Wt MBP, 7-8 days
  Fungal Rating: 0
[1]; Sorghum (33% H2 O), 0.51 % Wt MBP, 28-29 days
  Fungal Rating: 0
[1]; Sorghum (33% H2 O), 0.51 % Wt MBP, 2 days
  Fungal Rating: 0
[1]; Soybeans (26% H2 O), 0.51 % Wt MBP, 7-8 days
  Fungal Rating: 0
[1]; Soybeans (26% H2 O), 0.51 % Wt MBP, 28-29 days
  Fungal Rating: 0
[1]; Soybeans (26% H2 O), 0.51 % Wt MBP, 2 days
  Fungal Rating: 0
[1]; Wheat (26% H2 O), 0.6 % Wt MBP, 7-8 days
  Fungal Rating: 0
[1]; Wheat (26% H2 O), 0.6 % Wt MBP, 28-29 days
  Fungal Rating: 0
[1]; Wheat (26% H2 O), 0.6 % Wt MBP, 2 days
  Fungal Rating: 0
[1]; Wood Chips (freshly cut), 1.4 % Wt MBP, 7-8 days
  Fungal Rating: 0
[1]; Wood Chips (freshly cut), 1.4 % Wt MBP, 28-29 days
  Fungal Rating: 0
[1]; Wood Chips (freshly cut), 1.4 % Wt MBP, 2 days
  Fungal Rating: 0
[2]
  MIC: 800 µg/mL (≈ 4.99 mM)
[3]
  MIC: 1000 µg/mL (≈ 6.24 mM)
[4]; 1.0 Oz./100 Lbs.
  % Control All Species: 97%
[4]; 2.5 Oz./100 Lbs.
  % Control All Species: 100%
[4]; 6.4 Oz./100 Lbs.
  % Control All Species: 100%
[4]; 16 Oz./100 Lbs.
  % Control All Species: 100%
[5]
  LD50: 2800 mg/kg
[6]
  MIC: 8000 µg/mL (≈ 49.9 mM)
[7]
  MIC: 800 µg/mL (≈ 4.99 mM)
[8]; Aspergillus niger, 336 h, 0.16 oz./100 lbs.
  inhibition of growth at 0.16 oz/100 lb: 99%
[8]
  Conc. for 90% Control, Aspergillus niger: 0.16 oz./100 lbs.
[9]
  MIC: 700 µg/mL (≈ 4.37 mM)
[10]
  Conc. for 90% Control, Rhizopus sp.: 0.85 oz./100 lbs.
[11]; 3 Oz/Bu
  Weeks Effective: > 12 Weeks
[11]; 6 Oz/Bu
  Weeks Effective: > 12 Weeks
[11]
  effectiveness in preservation of high moisture corn (in words): remarkably superior to propionic acid in the preservation of high moisture corn
[12]
  MIC: 1000 µg/mL (≈ 6.24 mM)
[13]
  MIC: 6000 µg/mL (≈ 37.5 mM)
[14]
  MIC: 7000 µg/mL (≈ 43.7 mM)
[15]
  Conc. for 90% Control, Fusarium sp.: 0.5 oz./100 lbs.

## COP(=O)(NC(C)=O)SC (stereo not drawn) [O,S-dimethylN-acetyl phosphoramidothioate]
[16]
  solubility in methylene bispropionate: 5 percent by weight

## CC(=O)OCOCOC(C)=O [Oxybismethylene Acetate, Oxybismethylene Bisacetate]
[11]; 3 Oz/Bu
  Weeks Effective: 5 Weeks
[11]; 6 Oz/Bu
  Weeks Effective: > 12 Weeks

## CCCC(=O)OCOCOC(=O)CCC [Oxybismethylene Bisbutyrate]
[4]; 1.0 Oz./100 Lbs.
  % Control All Species: 100%
[4]; 2.5 Oz./100 Lbs.
  % Control All Species: 100%
[4]; 6.4 Oz./100 Lbs.
  % Control All Species: 100%
[4]; 16 Oz./100 Lbs.
  % Control All Species: 100%
[8]
  Conc. for 90% Control, Aspergillus niger: 0.57 oz./100 lbs.
[10]
  Conc. for 90% Control, Rhizopus sp.: 1.1 oz./100 lbs.
[15]
  Conc. for 90% Control, Fusarium sp.: 1.0 oz./100 lbs.

## CC(C)C(=O)OCOCOC(=O)C(C)C [Oxybismethylene Bisisobutyrate]
[4]; 1.0 Oz./100 Lbs.
  % Control All Species: 73%
[4]; 2.5 Oz./100 Lbs.
  % Control All Species: 87%
[4]; 6.4 Oz./100 Lbs.
  % Control All Species: 100%
[4]; 16 Oz./100 Lbs.
  % Control All Species: 100%
[8]
  Conc. for 90% Control, Aspergillus niger: 0.88 oz./100 lbs.
[10]
  Conc. for 90% Control, Rhizopus sp.: 1.2 oz./100 lbs.
[15]
  Conc. for 90% Control, Fusarium sp.: 0.88 oz./100 lbs.

## CCC(=O)OCOCOC(=O)CC [Oxybismethylene Propionate, Oxybismethylene Bispropionate]
[11]; 2 Oz/Bu
  Weeks Effective: 6 Weeks
[11]; 3 Oz/Bu
  Weeks Effective: 12 Weeks
[11]; 4 Oz/Bu
  Weeks Effective: > 12 Weeks
[11]; 5 Oz/Bu
  Weeks Effective: > 12 Weeks
[11]
  effectiveness in preservation of high moisture corn (in words): remarkably superior to propionic acid in the preservation of high moisture corn

## CCC(=O)O [Propionic acid, reference compound]
[4]; 1.0 Oz./100 Lbs.
  % Control All Species: 28%
[4]; 2.5 Oz./100 Lbs.
  % Control All Species: 60%
[4]; 6.4 Oz./100 Lbs.
  % Control All Species: 99%
[4]; 16 Oz./100 Lbs.
  % Control All Species: 99%
[8]
  Conc. for 90% Control, Aspergillus niger: 3.4 oz./100 lbs.
[10]
  Conc. for 90% Control, Rhizopus sp.: 3.8 oz./100 lbs.
[11]; 2 Oz/Bu
  Weeks Effective: 6 Weeks
[11]; 3 Oz/Bu
  Weeks Effective: 6 Weeks
[11]; 4 Oz/Bu
  Weeks Effective: > 12 Weeks
[11]; 6 Oz/Bu
  Weeks Effective: > 12 Weeks
[15]
  Conc. for 90% Control, Fusarium sp.: 9.6 oz./100 lbs.

## CCOP(=S)(OCC)Oc1ccc([N+](=O)[O-])cc1 [parathion, O,O-diethyl-O-p-nitrophenyl phosphorothioate]
[16]
  miscibility with methylene bispropionate (in words): miscible with methylene bispropionate in all proportions
